{"source": "patent US20240324590A1", "about": "“COMBINATIONS OF TRIAZOLINONE HERBICIDES WITH SAFENERS” (UPL CORPORATION LIMITED, priority 2021, published 2024)", "format_in_all_cases": "in vivo", "key": {"corn crop [1]": {"system": "corn crop", "assay": "Height of corn plants after treatment, greenhouse", "conditions": "for Crop height (cm) at 14 DAA: safener 90 g ai/ha", "description": "(§1) The combination of flucarbazone with safeners selected from cyprosulfamid and isoxadifen were evaluated in terms of the increase or decrease in height of the treated corn crop (cm) and % phytotoxicity. The experimental evaluations were conducted under greenhouse conditions with 4 repetitions, using a spray volume of […]. The different corn varieties tested were SYN8A98 TLTG and XB 8010.\nThe observations for determining corn height were made at 14 DAA (days after application) of the herbicide. The treatment employed and the corresponding observations are detailed in the table 8 (i) & (ii) below: […]"}, "corn crop [2]": {"system": "corn crop", "assay": "% phytotoxicity in corn crop after spraying tank mix", "conditions": "for Phytotoxicity (%) in corn crop: flucarbazone 30 g ai/ha, safener cyprosulfamid 66 / isoxadifen 38 / mefenpyr 30 g ai/ha", "description": "Treatment: The present invention has employed a tank mix combination of Flucarbazone and Cyprosulfamid as the safener to evaluate its percentage phytotoxicity and its efficacy in the control of weeds.\nThe tank mix combination of Flucarbazone and Cyprosulfamid as the safener was formulated and the combination was sprayed onto corn crop and the results on the phytotoxicity in corn were determined. These observations relating to % phytotoxicity were made during a time interval of over a month. The duration at which the % phytotoxicity were determined at time intervals as follows: 3 DAA (3 days after application), 5 DAA (5 days after application), 7 DAA (7 days after application), 14 DAA (14 days after application), 21 DAA (21 days after application); 28 DAA (28 days after application); 35 DAA (35 days after application); 42DAA (42 days after application).\n• (i) Treatment: The present invention has employed a tank mix of Flucarbazone and Isoxadifen as the safener to evaluate its percentage phytotoxicity in corn crop. • (ii) % Phytotoxicity: This % phytotoxicity was observed by the present inventors to be as high as 48% at 14 DAA in crops treated with Flucarbazone and Isoxadifen.\nB) Flucarbazone with Mefenpyr as the Safener • (i) Treatment: The present invention has employed a tank mix combination of Flucarbazone and […] as the safener to evaluate its percentage phytotoxicity in corn crop."}, "redroot pigweed": {"system": "redroot pigweed", "assay": "% efficacy of weed control against redroot pigweed in corn crop", "conditions": "for % Efficacy for control of weeds: redroot pigweed in corn crop, flucarbazone 30 g ai/ha, cyprosulfamid 66 g ai/ha", "description": "The tank mix combination of Flucarbazone and Cyprosulfamid as the safener was formulated and the combination was sprayed onto corn crop and the results on the efficacy in weed control were determined."}, "corn crop [3]": {"system": "corn crop", "assay": "% phytotoxicity on corn varieties, greenhouse", "conditions": "flucarbazone 45 g ai/ha alone", "description": "as §1\nThe observations for determining corn height were made at 7 DAA (days after application), 14 DAA and 21 DAA, of the herbicide. The treatment employed and the corresponding observations are detailed in the table 9 (i) & (ii) below: […]"}}}
{"smiles": "COc1nn(C(=O)NS(=O)(=O)c2ccccc2OC(F)(F)F)c(=O)n1C", "note": "[flucarbazone, Flucarbazone]", "values": [{"measurement": "Height of the corn plants", "setting": "corn crop [1]; 14 DAA, compared with untreated corn", "value": "reduction in height"}, {"measurement": "Crop height (cm) at 14 DAA", "setting": "corn crop [1]; corn variety SYN8A98 TLTG, flucarbazone 30 g ai/ha", "value": 14, "unit": "cm"}, {"measurement": "Crop height (cm) at 14 DAA", "setting": "corn crop [1]; corn variety XB 8010, flucarbazone 30 g ai/ha", "value": 11, "unit": "cm"}, {"measurement": "Phytotoxicity (%) in corn crop", "setting": "corn crop [2]; 3DAA & 5DAA, sub-column 1 of 3 (unlabelled)", "value": 0, "unit": "%"}, {"measurement": "Phytotoxicity (%) in corn crop", "setting": "corn crop [2]; 3DAA & 5DAA, sub-column 3 of 3 (unlabelled)", "value": 0, "unit": "%"}, {"measurement": "Phytotoxicity (%) in corn crop", "setting": "corn crop [2]; 3DAA & 5DAA", "value": 0, "unit": "%"}, {"measurement": "Phytotoxicity (%) in corn crop", "setting": "corn crop [2]; 7DAA, sub-column 1 of 3 (unlabelled)", "value": 28.8, "unit": "%"}, {"measurement": "Phytotoxicity (%) in corn crop", "setting": "corn crop [2]; 7DAA, sub-column 3 of 3 (unlabelled)", "value": 28.8, "unit": "%"}, {"measurement": "Phytotoxicity (%) in corn crop", "setting": "corn crop [2]; 7DAA", "value": 28.8, "unit": "%"}, {"measurement": "Phytotoxicity (%) in corn crop", "setting": "corn crop [2]; 14 DAA, sub-column 1 of 3 (unlabelled)", "value": 51.3, "unit": "%"}, {"measurement": "Phytotoxicity (%) in corn crop", "setting": "corn crop [2]; 14 DAA, sub-column 3 of 3 (unlabelled)", "value": 50, "unit": "%"}, {"measurement": "Phytotoxicity (%) in corn crop", "setting": "corn crop [2]; 14 DAA", "value": 53.8, "unit": "%"}, {"measurement": "Phytotoxicity (%) in corn crop", "setting": "corn crop [2]; 21DAA, sub-column 1 of 3 (unlabelled)", "value": 50, "unit": "%"}, {"measurement": "Phytotoxicity (%) in corn crop", "setting": "corn crop [2]; 21DAA, sub-column 3 of 3 (unlabelled)", "value": 46.3, "unit": "%"}, {"measurement": "Phytotoxicity (%) in corn crop", "setting": "corn crop [2]; 21DAA", "value": 51.3, "unit": "%"}, {"measurement": "Phytotoxicity (%) in corn crop", "setting": "corn crop [2]; 28DAA, sub-column 1 of 3 (unlabelled)", "value": 47.5, "unit": "%"}, {"measurement": "Phytotoxicity (%) in corn crop", "setting": "corn crop [2]; 28DAA, sub-column 3 of 3 (unlabelled)", "value": 39.8, "unit": "%"}, {"measurement": "Phytotoxicity (%) in corn crop", "setting": "corn crop [2]; 28DAA", "value": 56.3, "unit": "%"}, {"measurement": "Phytotoxicity (%) in corn crop", "setting": "corn crop [2]; 35DAA, sub-column 1 of 3 (unlabelled)", "value": 44.9, "unit": "%"}, {"measurement": "Phytotoxicity (%) in corn crop", "setting": "corn crop [2]; 35DAA, sub-column 3 of 3 (unlabelled)", "value": 39.9, "unit": "%"}, {"measurement": "Phytotoxicity (%) in corn crop", "setting": "corn crop [2]; 35DAA", "value": 53.8, "unit": "%"}, {"measurement": "Phytotoxicity (%) in corn crop", "setting": "corn crop [2]; 42DAA, sub-column 1 of 3 (unlabelled)", "value": 42.4, "unit": "%"}, {"measurement": "Phytotoxicity (%) in corn crop", "setting": "corn crop [2]; 42DAA, sub-column 3 of 3 (unlabelled)", "value": 38.7, "unit": "%"}, {"measurement": "Phytotoxicity (%) in corn crop", "setting": "corn crop [2]; 42DAA", "value": 48.7, "unit": "%"}, {"measurement": "% phytotoxicity levels in corn crop", "setting": "corn crop [2]; at 14 DAA, highest level stated in text", "value": "up to 50%"}, {"measurement": "% phytotoxicity in corn crop", "setting": "corn crop [2]; over a period of one month after application", "value": "significant damage"}, {"measurement": "% Efficacy for control of weeds", "setting": "redroot pigweed; 7 DAA", "value": 22.5, "unit": "%"}, {"measurement": "% Efficacy for control of weeds", "setting": "redroot pigweed; 14 DAA", "value": 42.5, "unit": "%"}, {"measurement": "% Efficacy for control of weeds", "setting": "redroot pigweed; 21 DAA", "value": 45, "unit": "%"}, {"measurement": "% Efficacy for control of weeds", "setting": "redroot pigweed; 28 DAA", "value": 48.8, "unit": "%"}, {"measurement": "% Efficacy for control of weeds", "setting": "redroot pigweed; 35 DAA", "value": 48.8, "unit": "%"}, {"measurement": "% Efficacy for control of weeds", "setting": "redroot pigweed; 42 DAA", "value": 48.8, "unit": "%"}, {"measurement": "% efficacy control of redroot pigweed", "setting": "redroot pigweed; over a duration of one month, corn crop", "value": "reduced % efficacy"}, {"measurement": "% phytotoxocity of corn crop variety P4285VYHR", "setting": "corn crop [3]; 7DAA", "value": 26, "unit": "ab %"}, {"measurement": "% phytotoxocity of corn crop variety SYN8A98 TLTG", "setting": "corn crop [3]; 7DAA", "value": 19, "unit": "cd %"}, {"measurement": "% phytotoxocity of corn crop variety XB 8010", "setting": "corn crop [3]; 7DAA", "value": 28, "unit": "a %"}, {"measurement": "% phytotoxocity of corn crop variety P4285VYHR", "setting": "corn crop [3]; 14 DAA", "value": 34, "unit": "b %"}, {"measurement": "% phytotoxocity of corn crop variety SYN8A98 TLTG", "setting": "corn crop [3]; 14 DAA", "value": 47, "unit": "ab %"}, {"measurement": "% phytotoxocity of corn crop variety XB 8010", "setting": "corn crop [3]; 14 DAA", "value": 52, "unit": "ab %"}, {"measurement": "% phytotoxocity of corn crop variety P4285VYHR", "setting": "corn crop [3]; 21 DAA", "value": 32, "unit": "b %"}, {"measurement": "% phytotoxocity of corn crop variety SYN8A98 TLTG", "setting": "corn crop [3]; 21 DAA", "value": 48, "unit": "bc %"}, {"measurement": "% phytotoxocity of corn crop variety XB 8010", "setting": "corn crop [3]; 21 DAA", "value": 51, "unit": "ab %"}]}
